Values joined by “and” are separate entries in the source; they are usually repeats but may differ in a detail not shown here. Equal entries are not always repeated.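 Step 1: Grow cells in 96-well plates. Step 2: Expose to compound for 48 hours at 5 concentrations. Step 3: Interpolate endpoints linearly; if unreached, use highest concentration. At the GI50, growth is halved. TGI: total growth inhibition.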
What was measured:
Experiment in all cases: NCI tumour cell line growth inhibition, 48 h
[1] = system: SF-268 CNS
[2] = system: UACC-62 melanoma
[3] = system: OVCAR-5 ovarian
[4] = system: MCF7 breast
[5] = system: PC-3 prostate
[6] = system: NCI-H23 lung
[7] = system: OVCAR-8 ovarian
[8] = system: HOP-92 NSCLC
[9] = system: OVCAR-4 ovarian
[10] = system: IGROV1 ovarian

Compound	GI50 [1]	TGI [1]	GI50 [2]	TGI [2]	GI50 [3]	TGI [3]	GI50 [4]	TGI [4]	GI50 [5]	TGI [5]	GI50 [6]	TGI [6]	GI50 [7]	TGI [7]	GI50 [8]	TGI [8]	GI50 [9]	TGI [9]	GI50 [10]	TGI [10]
N#CC1=C(/N=C/c2ccccc2)Oc2c(ccc3ccccc23)C1c1ccccc1 (stereo not given)	1.02 µM	> 100 µM	0.653 µM	> 100 µM	2.13 µM	> 100 µM	0.421 µM	> 100 µM	0.477 µM	> 100 µM	0.715 µM	> 100 µM	0.708 µM	> 100 µM	0.299 µM	> 23.6 µM	0.698 µM	> 100 µM	0.725 µM	> 100 µM
COc1cc(/C=C/C(=O)c2cccc(-n3cc(-c4ccc(Cl)cc4)[nH]c3=O)c2)cc(OC)c1OC	5.07 µM	39.2 µM	8.88 µM	21.4 µM	3.11 µM	10.2 µM	1.74 µM	5.75 µM	16.5 µM	> 100 µM	3.56 µM	16.9 µM	3.85 µM	> 100 µM	> 100 µM	> 100 µM	11.4 µM	38 µM	4.68 µM	19 µM
COc1ccc(N(CC(=O)NCCC[Te]c2ccccc2)C(=O)CNC(=O)OC(C)(C)C)cc1	2.7 µM	7.56 µM	1.65 µM	3.79 µM	3 µM	7.48 µM	2.57 µM	7.59 µM	1.72 µM	10.1 µM	2.5 µM	6.61 µM	2.41 µM	6.92 µM	2.36 µM	4.94 µM	22.6 µM	> 100 µM	2.24 µM	5.42 µM
O=C(CC1(O)C(=O)N(Cc2ccccc2)c2ccccc21)c1ccc(C(=O)NCC2CCC3(CC2)OOC2(CCCCC2)OO3)cc1 (stereo not given)	1.85 µM	4.03 µM	2.2 µM	5.44 µM	1.61 µM	7.52 µM	2.43 µM	10.5 µM	1.58 µM	4.91 µM	0.402 µM	1.28 µM	0.287 µM	0.817 µM	0.184 µM	0.434 µM	1.95 µM	5.35 µM	0.408 µM	1.62 µM
O=C(/C=C/c1cccc(O)c1)c1cccc(-n2cc(-c3ccccc3)[nH]c2=O)c1	3.66 µM	12.3 µM	2.82 µM	9.54 µM	3.86 µM	11.9 µM	2.29 µM	6.68 µM	2.82 µM	11.1 µM	3.64 µM	14.4 µM	2.86 µM	10.5 µM	3.57 µM	13.8 µM	4.15 µM	> 37 µM	3.24 µM	13.2 µM
COc1ccc(NC(=O)C2CCC(CNS(=O)(=O)c3ccccc3)CC2)cc1OC (stereo not given)	74.2 µM	> 100 µM	54.6 µM	> 100 µM	> 100 µM	> 100 µM	> 100 µM	> 100 µM	> 100 µM	> 100 µM	> 100 µM	> 100 µM	> 100 µM	> 100 µM	> 100 µM	> 100 µM	> 100 µM	> 100 µM	> 100 µM	> 100 µM
O=C1OC(C(O)CO)C(O)=C1O (stereo not given)	2120 µM and 1960 µM	4020 µM	1670 µM and 2050 µM	3050 µM and > 5130 µM	1790 µM and 1730 µM	3400 µM and 3310 µM	233 µM and 489 µM	502 µM and 1100 µM	2190 µM and > 4180 µM	5670 µM and > 5820 µM	2920 µM and > 4420 µM	> 10000 µM	1550 µM and 1510 µM	3050 µM and 3190 µM	2060 µM and > 10000 µM	4480 µM and > 10000 µM	1840 µM and 1970 µM	3520 µM and 3940 µM	2040 µM and > 2490 µM	4140 µM and > 4350 µM
CCC1(O)C(=O)OCc2c1cc1n(c2=O)Cc2cc3c(NC(=O)CN)cccc3nc2-1 (stereo not given)	0.191 µM	46.5 µM	0.0927 µM	0.852 µM	3.27 µM	63.9 µM	0.181 µM	> 43.2 µM	2.72 µM	> 100 µM	0.27 µM	2.58 µM	0.557 µM	30.2 µM	2.47 µM	24.1 µM	7.53 µM	36.7 µM	3.9 µM	73.4 µM
COC(=O)[C@H]1CCCN1C(=O)[C@H]1CCCN1C(=O)[C@@H](Cc1c[nH]c2ccccc12)NC(=S)Nc1cc(C(F)(F)F)cc(C(F)(F)F)c1	2 µM	5.4 µM	1.84 µM	3.79 µM	1.78 µM	3.54 µM	2.16 µM	5.35 µM	1.61 µM	3.04 µM	2.07 µM	4.68 µM	1.98 µM	3.94 µM	1.2 µM	3.22 µM	2.86 µM	12.9 µM	1.88 µM	4.16 µM
C#CCNC(=O)[C@H](CC)[C@H]1CC[C@H](C)[C@H]([C@@H](C)[C@H](O)[C@H](C)C(=O)[C@H](CC)C2O[C@]3(C=CC(=O)[C@]4(CC[C@@](C)([C@H]5CC[C@](O)(CC)[C@H](C)O5)O4)O3)[C@H](C)C[C@@H]2C)O1 (stereo not given in full)	2.08 µM	6.37 µM	1.68 µM	4.28 µM	2.62 µM	8.16 µM	2.67 µM	12.2 µM	2 µM	8.78 µM	2.83 µM	> 100 µM	2.96 µM	35.8 µM	1.37 µM	6.62 µM	2.91 µM	> 100 µM	2.03 µM	7.92 µM
COC1C(O)C(CO)OC(OC2C(O)COC(OC3C(C)OC(OC4C(O[C@H]5CC[C@@]6(C)C(CC=C7[C@H]6CCC68C(=O)O[C@@](C)(CCCC(C)C)[C@H]6[C@@H](OC(C)=O)C[C@@]78C)C5(C)C)OCC(OS(=O)(=O)O)C4O)C(OC4OCC(O)C(O)C4O)C3O)C2O)C1O (stereo not given in full)	0.199 µM	0.685 µM	0.175 µM	0.353 µM	0.241 µM	0.564 µM	0.166 µM	0.431 µM	0.159 µM	1.87 µM	0.113 µM	0.287 µM	0.165 µM	0.43 µM	0.0934 µM	0.842 µM	0.147 µM	0.433 µM	0.178 µM	0.499 µM
COC1=C(OC)C(=O)C(SC/C=C(\C)CCCC(C)CCCC(C)CCCC(C)C)=CC1=O (stereo not given)	1.98 µM	> 100 µM	0.797 µM	> 100 µM	0.564 µM	> 89.7 µM	0.455 µM	> 26.9 µM	0.255 µM	> 100 µM	1.37 µM	36.1 µM	0.456 µM	> 100 µM	1.41 µM	6.65 µM	1.32 µM	> 100 µM	2.94 µM	> 29.2 µM
Nc1nc(Nc2ccccc2SSc2ccccc2Nc2nc(N)nc(C(Cl)(Cl)Cl)n2)nc(C(Cl)(Cl)Cl)n1	3.1 µM	13.8 µM	2.94 µM	11.4 µM	4.75 µM	18.7 µM	6.46 µM	33 µM	3.56 µM	18.6 µM	3.66 µM	13.9 µM	5.38 µM	24.7 µM	4.33 µM	21.4 µM	6.86 µM	45.1 µM	3.49 µM	15.7 µM
